The target in this assay is T1, human ferroportin (Homo sapiens, UniProt Q9NP59).
T1 construct: luciferase reporter (read with the Nano-Glo Luciferase Assay System); expressed in transfected cells; host or cells: CHO cells, stably transfected, expression induced with doxycycline
T1 sequence (Q9NP59 1-571): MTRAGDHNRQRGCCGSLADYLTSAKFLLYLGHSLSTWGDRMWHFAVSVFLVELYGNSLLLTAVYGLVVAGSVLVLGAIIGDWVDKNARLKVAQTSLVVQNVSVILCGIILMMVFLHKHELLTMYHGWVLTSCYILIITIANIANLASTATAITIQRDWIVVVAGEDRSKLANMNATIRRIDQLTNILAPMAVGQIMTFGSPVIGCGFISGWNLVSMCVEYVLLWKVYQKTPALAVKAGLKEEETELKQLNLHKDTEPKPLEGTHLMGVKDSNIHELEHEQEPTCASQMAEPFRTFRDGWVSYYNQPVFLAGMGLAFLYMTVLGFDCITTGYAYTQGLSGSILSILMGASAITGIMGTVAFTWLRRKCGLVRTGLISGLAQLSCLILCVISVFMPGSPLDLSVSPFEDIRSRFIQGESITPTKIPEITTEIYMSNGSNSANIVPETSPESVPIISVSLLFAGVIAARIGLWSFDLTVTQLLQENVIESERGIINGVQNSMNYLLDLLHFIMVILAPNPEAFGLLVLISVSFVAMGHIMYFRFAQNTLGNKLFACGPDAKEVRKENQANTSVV
The assay can be described thus: Biological in-vitro ferroportin internalization assay (luciferase reporter). It counts as cell-based. The settings on record: average pEC50; stably-transfected CHO cell line expressing human ferroportin tagged to a luciferase reporter; 6 h incubation with test compound. In outline: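 Read-out is Nano-Glo luciferase signal after 6 h compound exposure, with average pEC50 derived. Cells are a stable CHO line carrying luciferase-tagged human ferroportin, pre-loaded 24 h with ferric ammonium citrate and doxycycline-induced for 24 h.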
Turning to `COc1cccc(NC(=O)CN(C)c2nc(-c3cc(OCCO)ccn3)nc3c2CCC3)c1` [Compound 279, 2-({2-[4-(2-hydroxyethoxy)pyridin-2-yl]-5H,6H,7H-cyclopenta[d]pyrimidin-4-yl}(methyl)amino)-N-(3-methoxyphenyl)acetamide], the pEC50 (in general, the EC50 on a negative log10 scale, so that one unit is a factor of ten) was found to be 8.2.

`CN(CC(=O)Nc1cccc(F)c1)c1nc(-c2cc(OCC(C)(C)O)ccn2)nc2c1CCC2` [Compound 280, N-(3-fluorophenyl)-2-({2-[4-(2-hydroxy-2-methylpropoxy)pyridin-2-yl]-5H,6H,7H-cyclopenta[d]pyrimidin-4-yl}(methyl)amino)acetamide] displayed a pEC50 of 8.3. The pEC50 values of the last two molecules are within 0.2 log units of each other.

With `COc1ccnc(-c2nc3c(c(N(C)CC(=O)Nc4ccc(=O)n(C)c4)n2)CCC3)c1` [Compound 281, 2-{[2-(4-methoxypyridin-2-yl)-5H,6H,7H-cyclopenta[d]pyrimidin-4-yl](methyl)amino}-N-(1-methyl-6-oxo-1,6-dihydropyridin-3-yl)acetamide], the pEC50 is on record as 7.3.

The molecule `CN(CC(=O)Nc1cccc(F)c1)c1nc(-c2cc3c(cn2)OCCO3)nc2c1CCC2` [Compound 282, 2-[(2-{2H,3H-[1,4]dioxino[2,3-c]pyridin-7-yl}-5H,6H,7H-cyclopenta[d]pyrimidin-4-yl)(methyl)amino]-N-(3-fluorophenyl)acetamide] returned a pEC50 of 7.5.

The molecule `CN(CC(=O)Nc1cncc(OC(F)(F)F)c1)c1nc(-c2cc3ccccc3cn2)nc2c1CCC2` [Compound 283, 2-{[2-(isoquinolin-3-yl)-5H,6H,7H-cyclopenta[d]pyrimidin-4-yl](methyl)amino}-N-[5-(trifluoromethoxy)pyridin-3-yl]acetamide] gave a pEC50 of 6.6.

Regarding `Cc1cnc(NC(=O)CN(C)c2nc(-c3cc(OCCO)ccn3)nc3c2CCC3)cn1` [Compound 284, 2-({2-[4-(2-hydroxyethoxy)pyridin-2-yl]-5H,6H,7H-cyclopenta[d]pyrimidin-4-yl}(methyl)amino)-N-(5-methylpyrazin-2-yl)acetamide], the pEC50 worked out at 7.7.

The molecule `COc1ccc(NC(=O)CN(C)c2nc(-c3cc(OCCO)ccn3)nc3c2CCC3)nn1` [Compound 285, 2-({2-[4-(2-hydroxyethoxy)pyridin-2-yl]-5H,6H,7H-cyclopenta[d]pyrimidin-4-yl}(methyl)amino)-N-(6-methoxypyridazin-3-yl)acetamide] displayed a pEC50 of 7.8.

The molecule `Cc1ccc(NC(=O)CN(C)c2nc(-c3cc(OCCO)ccn3)nc3c2CCC3)nn1` [Compound 286, 2-({2-[4-(2-hydroxyethoxy)pyridin-2-yl]-5H,6H,7H-cyclopenta[d]pyrimidin-4-yl}(methyl)amino)-N-(6-methylpyridazin-3-yl)acetamide] yielded a pEC50 of 7.5.

`COc1ccnc(-c2nc3c(c(N(C)CC(=O)Nc4ccn(C)c(=O)c4)n2)CCC3)c1` [Compound 287, 2-{[2-(4-methoxypyridin-2-yl)-5H,6H,7H-cyclopenta[d]pyrimidin-4-yl](methyl)amino}-N-(1-methyl-2-oxo-1,2-dihydropyridin-4-yl)acetamide]: the pEC50 stood at 7.2.

As to `CN(CC(=O)Nc1ccc(C(F)(F)F)nc1)c1nc(-c2cc3cn[nH]c3cn2)nc2c1CCC2` [Compound 288, 2-[methyl(2-{1H-pyrazolo[3,4-c]pyridin-5-yl}-5H,6H,7H-cyclopenta[d]pyrimidin-4-yl)amino]-N-[6-(trifluoromethyl)pyridin-3-yl]acetamide], the pEC50 is 7.1. The pEC50 values of the last two molecules are within 0.2 log units of each other.

The molecule `CN(CC(=O)Nc1ccc(F)cc1)c1nc(-c2cc3cn[nH]c3cn2)nc2c1CCC2` [Compound 289, N-(4-fluorophenyl)-2-[methyl(2-{1H-pyrazolo[3,4-c]pyridin-5-yl}-5H,6H,7H-cyclopenta[d]pyrimidin-4-yl)amino]acetamide] had a pEC50 of 7.5.

Take `COc1cnc(NC(=O)CN(C)c2nc(-c3cc(OCCO)ccn3)nc3c2CCC3)cn1` [Compound 290, 2-({2-[4-(2-hydroxyethoxy)pyridin-2-yl]-5H,6H,7H-cyclopenta[d]pyrimidin-4-yl}(methyl)amino)-N-(5-methoxypyrazin-2-yl)acetamide]: the pEC50 is given as 7.6.

In turn, `Cc1ncc(NC(=O)CN(C)c2nc(-c3cc(OCCO)ccn3)nc3c2CCC3)cn1` [Compound 291, 2-({2-[4-(2-hydroxyethoxy)pyridin-2-yl]-5H,6H,7H-cyclopenta[d]pyrimidin-4-yl}(methyl)amino)-N-(2-methylpyrimidin-5-yl)acetamide] showed a pEC50 of 7.3.

`Cc1cccc(NC(=O)CN(C)c2nc(-c3cc(OCCO)ccn3)nc3c2CCC3)c1` [Compound 292, 2-({2-[4-(2-hydroxyethoxy)pyridin-2-yl]-5H,6H,7H-cyclopenta[d]pyrimidin-4-yl}(methyl)amino)-N-(3-methylphenyl)acetamide]: the pEC50 was found to be 8.1.

Molecule `CN(CC(=O)Nc1cccc(F)c1)c1nc(-c2cc(OCCN)ccn2)nc2c1CCC2` [Compound 293, 2-({2-[4-(2-aminoethoxy)pyridin-2-yl]-5H,6H,7H-cyclopenta[d]pyrimidin-4-yl}(methyl)amino)-N-(3-fluoropehnyl)acetamide] showed a pEC50 of 7.9.

Turning to `CN(C)CCOc1ccnc(-c2nc3c(c(N(C)CC(=O)Nc4cccc(F)c4)n2)CCC3)c1` [Compound 294, 2-[(2-{4-[2-(dimethylamino)ethoxy]pyridin-2-yl}-5H,6H,7H-cyclopenta[d]pyrimidin-4-yl)(methyl)amino]-N-(3-fluorophenyl)acetamide], the pEC50 worked out at 7.9.

Molecule `COc1cnc(NC(=O)CN(C)c2nc(-c3cc(OCCO)ccn3)nc3c2CCC3)nc1` [Compound 295, 2-({2-[4-(2-hydroxyethoxy)pyridin-2-yl]-5H,6H,7H-cyclopenta[d]pyrimidin-4-yl}(methyl)amino)-N-(5-methoxypyrimidin-2-yl)acetamide] yielded a pEC50 of 7.

The molecule `CN(CC(=O)Nc1cnn(C)c1)c1nc(-c2cc(OCCO)ccn2)nc2c1CCC2` [Compound 296, 2-({2-[4-(2-hydroxyethoxy)pyridin-2-yl]-5H,6H,7H-cyclopenta[d]pyrimidin-4-yl}(methyl)amino)-N-(1-methyl-1H-pyrazol-4-yl)acetamide] gave a pEC50 of 7.6.

Turning to `Cc1ccc(NC(=O)CN(C)c2nc(-c3cc4cc(CO)ccc4cn3)nc3c2CCC3)cn1` [Compound 297, 2-({2-[6-(hydroxymethyl)isoquinolin-3-yl]-5H,6H,7H-cyclopenta[d]pyrimidin-4-yl}(methyl)amino)-N-(6-methylpyridin-3-yl)acetamide], the pEC50 turned out to be 7.5.

In turn, `Cc1ccc(NC(=O)CN(C)c2nc(-c3ccc(F)cn3)nc3c2CCC3)cn1` [Compound 298, 2-{[2-(5-fluoropyridin-2-yl)-5H,6H,7H-cyclopenta[d]pyrimidin-4-yl](methyl)amino}-N-(6-methylpyridin-3-yl)acetamide] displayed a pEC50 of 6.1.

`CN(CC(=O)NC(C)(C)C)c1nc(-c2ccc(F)cn2)nc2c1CCC2` [Compound 299, N-tert-butyl-2-{[2-(5-fluoropyridin-2-yl)-5H,6H,7H-cyclopenta[d]pyrimidin-4-yl](methyl)amino}acetamide] yielded a pEC50 of 6.1.

Turning to `CN(CC(=O)NC(C)(C)C)c1nc(-c2ccc(Cl)cn2)nc2c1CCC2` [Compound 300, N-tert-butyl-2-{[2-(5-chloropyridin-2-yl)-5H,6H,7H-cyclopenta[d]pyrimidin-4-yl](methyl)amino}acetamide], the pEC50 is recorded as 6.2. The pEC50 values of the last two molecules are within 0.2 log units of each other.

Source of the values: US11746100B2 (GLOBAL BLOOD THERAPEUTICS, INC., priority 2020, dated 2023).
